Entries after “also recorded” stand apart in the source; their conditions may differ. Positions of bridges follow the written chain, without caps; N, C: chain ends. Non-standard residues stand in square brackets, D forms with d. Residues, ends and D or L forms follow the SMILES beside them. *: point of attachment. X1 = CC[C@H](C)CCCCC(=O)*; Dab = NCC[C@H](N)C(=O)O
Experiments:
[1] = mice
Description: Since D-11 contains five positively charged amino acids, it is easier to bind to bacterial negatively charged membrane components.
However, we still carried out high-dose toxicity tests in mice according to the recommendations.

[2] = test system: P. aeruginosa PAO1; experiment: microbe, parasite or virus in culture; settings: for MICac: the MIC for the antibiotic in the combination: S3 Table, PAO1
Summary of the method: (§1)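 Two-fold serial dilutions in MHB received an equal volume of bacteria (suspension about 1 × 10^6 CFU/mL). Plates were held 18 h at 37 °C, then read visually for growth. Triplicate, CLSI-based.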

[3] = cited from earlier work
[4] = test system: HEK-293 cells; settings: high concentration of D-11; cited from earlier work
Text: Interes ... || Response: This comment is valuable. […] We believe that it is a safe drug candidate.

[5] = test system: P. aeruginosa ATCC27853; experiment: microbe, parasite or virus in culture; parameters: MICa: MIC of the antibiotic / MICac: MIC of the antibiotic in the combination: unit not given beside the values; settings: strain ATCC27853, unit not given
Summary of the method: as §1

[6] = test system: P. aeruginosa NR-31041; experiment: microbe, parasite or virus in culture; parameters: MICa: MIC of the antibiotic / MICac: MIC of the antibiotic in the combination: unit not given beside the values; settings: strain NR-31041, unit not given
Summary of the method: as §1

[7] = test system: P. aeruginosa PA14; experiment: microbe, parasite or virus in culture; parameters: MICa: MIC of the antibiotic / MICac: MIC of the antibiotic in the combination: unit not given beside the values; settings: strain PA14, unit not given
Summary of the method: as §1

[8] = test system: P. aeruginosa PAK; experiment: microbe, parasite or virus in culture; parameters: MICa: MIC of the antibiotic / MICac: MIC of the antibiotic in the combination: unit not given beside the values; settings: strain PAK, unit not given
Summary of the method: as §1

[9] = test system: P. aeruginosa NR-31040; experiment: microbe, parasite or virus in culture; parameters: MICa: MIC of the antibiotic / MICac: MIC of the antibiotic in the combination: unit not given beside the values; settings: strain NR-31040, unit not given
Summary of the method: as §1

[10] = test system: P. aeruginosa HM-214; parameters: MICa: MIC of the antibiotic / MICac: MIC of the antibiotic in the combination: unit not given beside the values; settings: strain HM-214, unit not given
Summary of the method: as §1

[11] = test system: PAO1 in human blood; experiment: Antimicrobial activity in blood (ex vivo bacteremia model); type: cell-based, Pseudomonas aeruginosa; settings: human blood, 5×10^7 CFU/mL PAO1; antibiotic combined with D-11 (4 μM); 4 hours
Description: Human blood of healthy individuals was obtained from Sanquin (certified Dutch organization responsible for meeting the need in healthcare for blood and blood products, https://www.sanquin.nl/) and was infected with 5×10^7 CFU/mL of PAO1. The blood was distributed at 0.5 mL in 2 mL Eppendorf tubes and treated with the antibiotics and peptides at the indicated concentrations at 37 °C for 4 hours. The samples were decimal serially diluted in PBS. Drops of 10 μL of each dilution on LB agar to track the development of infection. The experiment was performed in triplicate.

[12] = test system: P. aeruginosa AUMC-Pa-6; experiment: microbe, parasite or virus in culture; settings: strain AUMC-Pa-6, unit not given
Summary of the method: as §1

[13] = test system: P. aeruginosa AUMC-Pa-4; experiment: microbe, parasite or virus in culture; settings: strain AUMC-Pa-4, unit not given
Summary of the method: as §1

[14] = test system: P. aeruginosa AUMC-Pa-5; experiment: microbe, parasite or virus in culture; settings: strain AUMC-Pa-5, unit not given
Summary of the method: as §1

[15] = test system: P. aeruginosa AUMC-Pa-3; experiment: microbe, parasite or virus in culture; settings: strain AUMC-Pa-3, unit not given
Summary of the method: as §1

[16] = test system: clinical P. aeruginosa isolates; experiment: microbe, parasite or virus in culture; settings: clinical isolates, 18 h
Summary of the method: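 Broth microdilution per CLSI in MHB, two-fold drug dilutions mixed with an equal volume of bacteria at about 1 × 10^6 CFU/mL. After 18 h at 37 °C, MIC taken as the lowest concentration with no visible growth; run in triplicate.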

[17] = test system: P. aeruginosa AUMC-Pa-2; settings: strain AUMC-Pa-2, unit not given
Summary of the method: as §1

[18] = test system: P. aeruginosa AUMC-Pa-1; settings: strain AUMC-Pa-1, unit not given
Summary of the method: as §1

## CC[C@@H](C)[C@@H](NC(=O)[C@H](N)CCCNC(=N)N)C(=O)N[C@@H](C(=O)N[C@H](CCC(N)=O)C(=O)N[C@H](CCCNC(=N)N)C(=O)N[C@@H](C(=O)N[C@H](CCCCN)C(=O)N[C@H](CCCCN)C(=O)N[C@H](Cc1c[nH]c2ccccc12)C(=O)N[C@H](CC(C)C)C(=O)N[C@H](CCCNC(=N)N)C(N)=O)[C@H](C)CC)C(C)C [Peptide D-11] (H-[dR][dI][dV][dQ][dR][dI][dK][dK][dW][dL][dR]-NH2)
[1]; 10 mg/kg D-11
  side effects in vivo (in words): no obvious side effects were observed
[1]; subcutaneous 20 mg/kg D-11
  irritation after subcutaneous injection (in words): slightly irritating
[2]; PAO1, 18 h
  MIC of the peptide: 32 µM
  MICb: the MIC of D-11: 32 µM
  MICb: the MIC of the peptide: 32 µM
[3]
  stability in plasma (in words): stable in plasma
[4]
  toxicity to HEK-293 cells (in words): not toxic to HEK-293 cells; also recorded: no toxicity to HEK-293 cells

## CC[C@H](C)CCCCC(=O)N[C@@H](CCN)C(=O)N[C@H](C(=O)N[C@@H](CCN)C(=O)N[C@H]1CCNC(=O)[C@H]([C@@H](C)O)NC(=O)[C@H](CCN)NC(=O)[C@H](CCN)NC(=O)[C@H](CC(C)C)NC(=O)[C@@H](Cc2ccccc2)NC(=O)[C@H](CCN)NC1=O)[C@@H](C)O [Polymyxin B] (X1-[Dab]T[Dab][Dab][Dab][dF]L[Dab][Dab]T; lactam 4-C (inferred); N-terminus assumed)
[5]; antibiotic alone
  MICa: MIC of the antibiotic: 0.125
[5]; with D-11 at MICbc 4
  MICac: MIC of the antibiotic in the combination: 0.008
[6]; antibiotic alone
  MICa: MIC of the antibiotic: 0.125
[6]; with D-11 at MICbc 4
  MICac: MIC of the antibiotic in the combination: 0.008
[7]; antibiotic alone
  MICa: MIC of the antibiotic: 0.125
[7]; with D-11 at MICbc 4
  MICac: MIC of the antibiotic in the combination: 0.008
[8]; antibiotic alone
  MICa: MIC of the antibiotic: 0.125
[8]; with D-11 at MICbc 4
  MICac: MIC of the antibiotic in the combination: 0.008
[9]; antibiotic alone
  MICa: MIC of the antibiotic: 0.25
[9]; with D-11 at MICbc 4
  MICac: MIC of the antibiotic in the combination: 0.031
[10]; antibiotic alone
  MICa: MIC of the antibiotic: 0.25
[10]; with D-11 at MICbc 4
  MICac: MIC of the antibiotic in the combination: 0.031
[11]
  antibacterial effect in blood (in words): relative week antibacterial effects
[12]; antibiotic alone
  MICa: MIC of the antibiotic: 1
[12]; with D-11 at MICbc 4
  MICac: MIC of the antibiotic in the combination: 0.25
[13]; antibiotic alone
  MICa: MIC of the antibiotic: 1
[13]; with D-11 at MICbc 4
  MICac: MIC of the antibiotic in the combination: 0.5
[14]; antibiotic alone
  MICa: MIC of the antibiotic: 1
[14]; with D-11 at MICbc 4
  MICac: MIC of the antibiotic in the combination: 0.125
[2]; 1×MIC used as positive control
  MIC of polymyxin B: 0.5 µg/mL
[2]; PAO1, 18 h
  MICa: the MIC of antibiotics: 0.25 µM
[2]; with 2 μM D-11
  MICac: the MIC for the antibiotic in the combination: 0.004 µM
[2]; with 4 μM D-11
  MICac: the MIC for the antibiotic in the combination: 0.001 µM
[15]; antibiotic alone
  MICa: MIC of the antibiotic: 0.125
[15]; with D-11 at MICbc 4
  MICac: MIC of the antibiotic in the combination: 0.002
[16]
  Antibiotic sensibility (MIC) of clinical P. aeruginosa isolate AUMC-Pa-1: 0.25 µM
  Antibiotic sensibility (MIC) of clinical P. aeruginosa isolate AUMC-Pa-2: 0.25 µM
  Antibiotic sensibility (MIC) of clinical P. aeruginosa isolate AUMC-Pa-3: 0.125 µM
  Antibiotic sensibility (MIC) of clinical P. aeruginosa isolate AUMC-Pa-4: 1 µM
  Antibiotic sensibility (MIC) of clinical P. aeruginosa isolate AUMC-Pa-5: 1 µM
  Antibiotic sensibility (MIC) of clinical P. aeruginosa isolate AUMC-Pa-6: 1 µM
  Antibiotic sensibility (MIC) of clinical P. aeruginosa isolate HM-214: 0.25 µM
  Antibiotic sensibility (MIC) of clinical P. aeruginosa isolate NR-31040: 0.25 µM
  Antibiotic sensibility (MIC) of clinical P. aeruginosa isolate NR-31041: 0.125 µM
[17]; antibiotic alone
  MICa: MIC of the antibiotic: 0.25
[17]; with D-11 at MICbc 4
  MICac: MIC of the antibiotic in the combination: 0.016
[18]; antibiotic alone
  MICa: MIC of the antibiotic: 0.25
[18]; with D-11 at MICbc 4
  MICac: MIC of the antibiotic in the combination: 0.016

From paper PMC8445441, “Elucidating the mechanism by which synthetic helper peptides sensitize Pseudomonas aeruginosa to multiple antibiotics” (PLoS Pathogens, 2021)
